Assay results published in ChEMBL document CHEMBL3272271, “Folate antagonists. 13. 2,4-Diamino-6-](alpha,alpha,alpha-trifluoro-m-tolyl)thio]quinazoline and related 2,4-diamino-6-[(phenyl- and naphthyl)thio]quinazolines, a unique class of antimetabolites with extraordinary antimalarial and antibacterial effects” (J Med Chem, 1978).
Values after ≈ are worked out from the molar mass of the structure shown. Active and inactive are the calls of the source. The rule behind the calls is not given here.

Tests used:
Escherichia coli = experiment: Antibacterial activity against Escherichia coli Vogel by gradient plate test; assay type: functional
Plasmodium gallinaceum [1] = experiment: Antimalarial activity against sporozoite-induced Plasmodium gallinaceum infected in white leghorn chicken assessed as disease cure from parasite infection at 240 mg/kg, sc administered 72 hrs after infection; assay type: functional, organism-based; parameters: dose 240 mg/kg
Plasmodium gallinaceum [2] = experiment: Antimalarial activity against sporozoite-induced Plasmodium gallinaceum infected in white leghorn chicken assessed as disease cure from parasite infection at 480 mg/kg, sc administered 72 hrs after infection; assay type: functional, organism-based; parameters: dose 480 mg/kg
Enterococcus faecalis = experiment: Antibacterial activity against Streptococcus faecalis MGH-2 by gradient plate test; assay type: functional
Gallus gallus [3] = experiment: Toxicity in sporozoite-induced Plasmodium gallinaceum infected white leghorn chicken assessed as mortality at 240 mg/kg, sc administered 72 hrs after infection measured up to 6 days; assay type: organism-based; parameters: dose 240 mg/kg, route subcutaneous; conditions: in vivo
Plasmodium gallinaceum [4] = experiment: Antimalarial activity against sporozoite-induced Plasmodium gallinaceum infected in white leghorn chicken assessed as disease cure from parasite infection at 120 mg/kg, sc administered 72 hrs after infection; assay type: functional, organism-based; parameters: dose 120 mg/kg
Plasmodium gallinaceum [5] = experiment: Antimalarial activity against sporozoite-induced Plasmodium gallinaceum infected in white leghorn chicken assessed as disease cure from parasite infection at 30 mg/kg, sc administered 72 hrs after infection; assay type: functional, organism-based; parameters: dose 30 mg/kg
Plasmodium berghei [6] = experiment: Antimalarial activity against Plasmodium berghei infected in mouse assessed as disease cure from parasite infection at 320 mg/kg, sc administered 72 hrs after infection; assay type: functional, organism-based; parameters: dose 320 mg/kg
Staphylococcus aureus [7] = experiment: Antibacterial activity against Staphylococcus aureus UC-96 by gradient plate test; assay type: functional
Plasmodium berghei [8] = experiment: Antimalarial activity against Plasmodium berghei infected in mouse assessed as increase in mean survival days of host at 80 mg/kg, sc administered 72 hrs after infection relative to control; assay type: functional; conditions: route subcutaneous
Plasmodium berghei [9] = experiment: Antimalarial activity against Plasmodium berghei infected in mouse assessed as increase in mean survival days of host at 20 mg/kg, sc administered 72 hrs after infection relative to control; assay type: functional; conditions: route subcutaneous
Plasmodium berghei [10] = experiment: Antimalarial activity against Plasmodium berghei infected in mouse assessed as increase in mean survival days of host at 10 mg/kg, sc administered 72 hrs after infection relative to control; assay type: functional; conditions: route subcutaneous
Gallus gallus [11] = experiment: Toxicity in sporozoite-induced Plasmodium gallinaceum infected white leghorn chicken assessed as mortality at 480 mg/kg, sc administered 72 hrs after infection measured up to 6 days; assay type: organism-based; parameters: dose 480 mg/kg, route subcutaneous; conditions: in vivo
Gallus gallus [12] = experiment: Toxicity in sporozoite-induced Plasmodium gallinaceum infected white leghorn chicken assessed as mortality at 120 mg/kg, sc administered 72 hrs after infection measured up to 6 days; assay type: organism-based; parameters: dose 120 mg/kg, route subcutaneous; conditions: in vivo
[13] = test system: Mycobacterium tuberculosis; experiment: Antibacterial activity against Mycobacterium tuberculosis H37Ra by gradient plate test; assay type: functional
Gallus gallus [14] = experiment: Toxicity in sporozoite-induced Plasmodium gallinaceum infected white leghorn chicken assessed as mortality at 15 mg/kg, sc administered 72 hrs after infection measured up to 6 days; assay type: organism-based; parameters: dose 15 mg/kg, route subcutaneous; conditions: in vivo
Plasmodium berghei [15] = experiment: Antimalarial activity against Plasmodium berghei infected in mouse assessed as disease cure from parasite infection at 80 mg/kg, sc administered 72 hrs after infection; assay type: functional, organism-based; parameters: dose 80 mg/kg
Pseudomonas aeruginosa = experiment: Antibacterial activity against Pseudomonas aeruginosa 28 by gradient plate test; assay type: functional
Shigella sonnei = experiment: Antibacterial activity against Shigella sonnei C-10 by gradient plate test; assay type: functional
Staphylococcus aureus [16] = experiment: Antibacterial activity against drug-resistant Staphylococcus aureus S18713 by gradient plate test; assay type: functional
Plasmodium gallinaceum [17] = experiment: Antimalarial activity against sporozoite-induced Plasmodium gallinaceum infected in white leghorn chicken assessed as disease cure from parasite infection at 15 mg/kg, sc administered 72 hrs after infection; assay type: functional, organism-based; parameters: dose 15 mg/kg
Plasmodium berghei [18] = experiment: Antimalarial activity against Plasmodium berghei infected in mouse assessed as disease cure from parasite infection at 640 mg/kg, sc administered 72 hrs after infection; assay type: functional, organism-based; parameters: dose 640 mg/kg
Plasmodium gallinaceum [19] = experiment: Antimalarial activity against sporozoite-induced Plasmodium gallinaceum infected in white leghorn chicken assessed as disease cure from parasite infection at 60 mg/kg, sc administered 72 hrs after infection; assay type: functional, organism-based; parameters: dose 60 mg/kg
Plasmodium berghei [20] = experiment: Antimalarial activity against Plasmodium berghei infected in mouse assessed as increase in mean survival days of host at 40 mg/kg, sc administered 72 hrs after infection relative to control; assay type: functional; conditions: route subcutaneous
Gallus gallus [21] = experiment: Toxicity in sporozoite-induced Plasmodium gallinaceum infected white leghorn chicken assessed as mortality at 30 mg/kg, sc administered 72 hrs after infection measured up to 6 days; assay type: organism-based; parameters: dose 30 mg/kg, route subcutaneous; conditions: in vivo
Gallus gallus [22] = experiment: Toxicity in sporozoite-induced Plasmodium gallinaceum infected white leghorn chicken assessed as mortality at 60 mg/kg, sc administered 72 hrs after infection measured up to 6 days; assay type: organism-based; parameters: dose 60 mg/kg, route subcutaneous; conditions: in vivo
Plasmodium berghei [23] = experiment: Antimalarial activity against Plasmodium berghei infected in mouse assessed as disease cure from parasite infection at 160 mg/kg, sc administered 72 hrs after infection; assay type: functional, organism-based; parameters: dose 160 mg/kg
Plasmodium gallinaceum [24] = experiment: Antimalarial activity against sporozoite-induced Plasmodium gallinaceum infected in white leghorn chicken assessed as disease cure from parasite infection at 80 mg/kg, sc administered 72 hrs after infection; assay type: functional, organism-based; parameters: dose 80 mg/kg
Plasmodium falciparum [25] = experiment: Antimalarial activity against chloroquine-susceptible, pyrimethamine-resistant Plasmodium falciparum Malayan Camp infected in Aotus trivirgatus owl monkey model assessed as cure from parasite infection at >2.5 mg/kg, po qd for 7 days relative to control; assay type: functional
Plasmodium falciparum [26] = experiment: Antimalarial activity against chloroquine-susceptible, pyrimethamine-resistant Plasmodium falciparum Malayan Camp infected in Aotus trivirgatus owl monkey model assessed as cure from parasite infection at 0.39 to 5 mg/kg, po qd for 7 days relative to control; assay type: functional; conditions: dose mg/kg 0.39-5
Plasmodium gallinaceum [27] = experiment: Antimalarial activity against trophozoite-induced Plasmodium gallinaceum infected in white leghorn chicken assessed as disease cure from parasite infection at 160 mg/kg, sc administered 72 hrs after infection; assay type: functional, organism-based; parameters: dose 160 mg/kg
Plasmodium berghei [28] = experiment: Antimalarial activity against Plasmodium berghei infected in mouse assessed as increase in mean survival days of host at 1.25 mg/kg, sc administered 72 hrs after infection relative to control; assay type: functional; conditions: route subcutaneous
Plasmodium gallinaceum [29] = experiment: Antimalarial activity against trophozoite-induced Plasmodium gallinaceum infected in white leghorn chicken assessed as disease cure from parasite infection at 320 mg/kg, sc administered 72 hrs after infection; assay type: functional, organism-based; parameters: dose 320 mg/kg
Plasmodium berghei [30] = experiment: Antimalarial activity against trophozoite-induced Plasmodium berghei infected in mouse assessed as daily dose required to suppression of 90% parasite infection administered with diet for 6 days; assay type: functional
Plasmodium gallinaceum [31] = experiment: Antimalarial activity against trophozoite-induced Plasmodium gallinaceum infected in white leghorn chicken assessed as increase in mean survival days of host at 160 mg/kg, sc administered 72 hrs after infection relative to control; assay type: functional; conditions: route subcutaneous
Plasmodium berghei [32] = experiment: Antimalarial activity against chloroquine-resistant Plasmodium berghei assessed as drug resistance; assay type: functional, organism-based
Plasmodium gallinaceum [33] = experiment: Antimalarial activity against sporozoite-induced Plasmodium gallinaceum infected in white leghorn chicken assessed as disease cure from parasite infection at 160 mg/kg, sc administered 72 hrs after infection; assay type: functional, organism-based; parameters: dose 160 mg/kg
Plasmodium falciparum [34] = experiment: Antimalarial activity against pyrimethamine-sensitive Plasmodium falciparum Vietnam Oak Knoll infected in Aotus trivirgatus owl monkey model assessed as cure from parasite infection at 0.098 to 1.56 mg/kg, po qd for 7 days relative to control; assay type: functional; conditions: dose mg/kg 0.098-1.56
Plasmodium berghei [35] = experiment: Ratio of quinine hydrochloride SD90 to compound SD90 for trophozoite-induced Plasmodium berghei infected in mouse assessed as daily dose required to suppression of 90% parasite infection administered with diet for 6 days; assay type: functional
Plasmodium berghei [36] = experiment: Antimalarial activity against Plasmodium berghei infected in mouse assessed as increase in mean survival days of host at 2.5 mg/kg, sc administered 72 hrs after infection relative to control; assay type: functional; conditions: route subcutaneous
Plasmodium gallinaceum [37] = experiment: Antimalarial activity against trophozoite-induced Plasmodium gallinaceum infected in white leghorn chicken assessed as increase in mean survival days of host at 80 mg/kg, sc administered 72 hrs after infection relative to control; assay type: functional; conditions: route subcutaneous
Plasmodium falciparum [38] = experiment: Antimalarial activity against pyrimethamine-sensitive Plasmodium falciparum Vietnam Oak Knoll infected in Aotus trivirgatus owl monkey model assessed as cure from parasite infection at 0.6 mg/kg, po qd for 7 days relative to control; assay type: functional
Plasmodium gallinaceum [39] = experiment: Antimalarial activity against sporozoite-induced Plasmodium gallinaceum infected in white leghorn chicken assessed as disease cure from parasite infection at 320 mg/kg, sc administered 72 hrs after infection; assay type: functional, organism-based; parameters: dose 320 mg/kg
Plasmodium berghei [40] = experiment: Antimalarial activity against Plasmodium berghei infected in mouse assessed as increase in mean survival days of host at 5 mg/kg, sc administered 72 hrs after infection relative to control; assay type: functional; conditions: route subcutaneous
Plasmodium gallinaceum [41] = experiment: Antimalarial activity against sporozoite-induced Plasmodium gallinaceum infected in white leghorn chicken assessed as increase in mean survival days of host at 80 mg/kg, sc administered 72 hrs after infection relative to control; assay type: functional; conditions: route subcutaneous
Plasmodium gallinaceum [42] = experiment: Antimalarial activity against sporozoite-induced Plasmodium gallinaceum infected in white leghorn chicken assessed as increase in mean survival days of host at 320 mg/kg, sc administered 72 hrs after infection relative to control; assay type: functional; conditions: route subcutaneous
Plasmodium berghei [43] = experiment: Antimalarial activity against Plasmodium berghei infected in mouse assessed as disease cure from parasite infection at 40 mg/kg, sc administered 72 hrs after infection; assay type: functional, organism-based; parameters: dose 40 mg/kg
Plasmodium berghei [44] = experiment: Antimalarial activity against cycloguanil-resistant Plasmodium berghei assessed as drug resistance; assay type: functional, organism-based

Structure (SMILES): Cc1cc(Sc2ccc3nc(N)nc(N)c3c2)ccc1Br
- MIC (Escherichia coli): 20 µg/mL (≈ 55.4 µM)
- Activity (Plasmodium gallinaceum [1]): Active
- Activity (Plasmodium gallinaceum [2]): Active
- MIC (Enterococcus faecalis): 10 µg/mL (≈ 27.7 µM)
- Activity (Gallus gallus [3]): Toxic
- Activity (Plasmodium gallinaceum [4]): Active
- Activity (Plasmodium gallinaceum [5]): Active
- Activity (Plasmodium berghei [6]): Active
- MIC (Staphylococcus aureus [7]): 5 µg/mL (≈ 13.8 µM)
- MST (Plasmodium berghei [8]): 11.9 days
- MST (Plasmodium berghei [9]): 3.5 days
- MST (Plasmodium berghei [10]): 1.9 days
- Activity (Gallus gallus [11]): Toxic
- Activity (Gallus gallus [12]): Toxic
- MIC [13]: > 25 µg/mL
- Activity (Gallus gallus [14]): Toxic
- Activity (Plasmodium berghei [15]): Active
- MIC (Pseudomonas aeruginosa): > 25 µg/mL
- MIC (Shigella sonnei): 20 µg/mL (≈ 55.4 µM)
- MIC (Staphylococcus aureus [16]): 10 µg/mL (≈ 27.7 µM)
- Activity (Plasmodium gallinaceum [17]): Active
- Activity (Plasmodium berghei [18]): Active
- Activity (Plasmodium gallinaceum [19]): Active
- MST (Plasmodium berghei [20]): 7.7 days
- Activity (Gallus gallus [21]): Toxic
- Activity (Gallus gallus [22]): Toxic
- Activity (Plasmodium berghei [23]): Active

Structure (SMILES): Nc1nc(N)c2cc(Sc3ccc(Cl)cc3)ccc2n1
- MIC (Escherichia coli): 1 µg/mL (≈ 3.3 µM)
- Activity (Plasmodium gallinaceum [24]): Active
- MIC (Enterococcus faecalis): < 0.25 µg/mL
- Activity (Plasmodium falciparum [25]): >50%
- Activity (Plasmodium falciparum [26]): >50%
- Activity (Plasmodium gallinaceum [27]): Active
- MST (Plasmodium berghei [28]): 1.7 days
- Activity (Plasmodium berghei [6]): Active
- MIC (Staphylococcus aureus [7]): < 0.25 µg/mL
- MST (Plasmodium berghei [8]): 25.8 days
- Activity (Plasmodium gallinaceum [29]): Active
- SD90 (Plasmodium berghei [30]): 0.22 mg/kg/day
- MST (Plasmodium berghei [9]): 9.2 days
- MST (Plasmodium gallinaceum [31]): 22.2 days
- Activity (Plasmodium berghei [32]): inactive
- MST (Plasmodium berghei [10]): 9.2 days
- Activity (Plasmodium gallinaceum [33]): Active
- Activity (Plasmodium falciparum [34]): >50%
- Ratio (Plasmodium berghei [35]): 340
- MST (Plasmodium berghei [36]): 2.5 days
- MST (Plasmodium gallinaceum [37]): 16.7 days
- Activity (Plasmodium berghei [15]): Active
- MIC (Pseudomonas aeruginosa): > 25 µg/mL
- Activity (Plasmodium falciparum [38]): >50%
- Activity (Plasmodium gallinaceum [39]): Active
- MST (Plasmodium berghei [40]): 6 days
- MIC (Shigella sonnei): 5 µg/mL (≈ 16.5 µM)
- MIC (Staphylococcus aureus [16]): < 0.25 µg/mL
- MST (Plasmodium gallinaceum [41]): 17.9 days
- MST (Plasmodium gallinaceum [42]): 1.9 days
- Activity (Plasmodium berghei [18]): Active
- MST (Plasmodium berghei [20]): 13.1 days
- Activity (Plasmodium berghei [43]): Active
- Activity (Plasmodium berghei [23]): Active
- Activity (Plasmodium berghei [44]): Active
